The numbers were not newly measured in patent US6486152B1, “Topical carbamazepine formulations and methods of use” (Taro Pharmaceutical Industries Ltd., priority 1997, dated 2002), which cites them from elsewhere.

One data set deals with psoriatic erythroderma. The conditions noted are these: HIV positive patient.

Each structure is given as a SMILES string.

For `NC(=O)N1c2ccccc2C=Cc2ccccc21` [Carbamazepine, 5-carbamoyl-5H-dibenz[b,f]azepine], the “psoriatic erythroderma condition during first intake” value in the data set on psoriatic erythroderma (accidentally ingested 200-400 mg/day for two weeks) is “exhibited improvement”. Further, in the data set on psoriatic erythroderma (after they stopped taking the medication), the “psoriatic erythroderma condition after stopping the medication” value is reported as “flared up again”. The “psoriatic erythroderma condition on second intake” value in the data set with psoriatic erythroderma (intentionally took the medication a second time) is on record as “improved once again”. Also, the mood entry with psoriatic erythroderma (systemic (ingested) carbamazepine) is on record as “affected”. The solubility in acetone entry (acetone) was “soluble”. The solubility in alcohols result (alcohols) is “soluble”. Moreover, for the setting “propylene glycol”, the “solubility in propylene glycol” value was “soluble”. The solubility in water entry (water) is given as “practically insoluble”.
